Article PMC7997574, “Lead Optimization of Benzoxazolone Carboxamides as Orally Bioavailable and CNS Penetrant Acid Ceramidase Inhibitors” (Journal of Medicinal Chemistry, 2020)
pIC50: −log10 of the molar value.

Tests used:
[1] = biological target: T1, human N-acylethanolamine acid amidase (hNAAA) (Homo sapiens, UniProt Q02083); test: Fluorogenic hNAAA assay; assay type: biochemical
T1 construct: expressed in transfected cells
T1 sequence (Q02083 29-359): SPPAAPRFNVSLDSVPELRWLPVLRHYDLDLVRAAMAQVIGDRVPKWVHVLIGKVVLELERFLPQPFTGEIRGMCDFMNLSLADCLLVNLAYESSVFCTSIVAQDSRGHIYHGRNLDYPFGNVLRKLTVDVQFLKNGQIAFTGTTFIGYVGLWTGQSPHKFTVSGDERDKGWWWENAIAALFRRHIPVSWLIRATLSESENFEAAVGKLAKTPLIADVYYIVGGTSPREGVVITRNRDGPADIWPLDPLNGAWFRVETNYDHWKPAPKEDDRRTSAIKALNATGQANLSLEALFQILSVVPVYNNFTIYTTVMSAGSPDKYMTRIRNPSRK
Experimental: HEK-293 cells stably transfected with the hNAAA coding sequence cloned from a human spleen cDNA library (catalog no. 639124, Clontech, Mountain View, CA, USA) were used as the enzyme source. Cells were grown in Dulbecco’s modified Eagle medium (DMEM) containing 10% FBS, 1% glutamine, 1 mM sodium pyruvate, and 500 μg mL^–1 G418. Cells were harvested, and pellets were stored at −80 °C until lysosomal-enriched lysate preparation. Cells were suspended in 20 mM Tris HCl (pH 7.4) with 0.32 M sucrose, sonicated, and centrifuged at 800 × g for 30 min at 4 °C. Supernatants were then ultracentrifuged at 12000 × g for 30 min at 4 °C. […] The suspension was finally ultracentrifuged at 105000 × g for 1 h at 4 °C, supernatants were collected, protein concentration was measured, and samples were aliquoted and stored at −80 °C until use.
The assay was run in 96-well microplates (Black OptiPlate-96F; PerkinElmer, Massachusetts, USA) in a total reaction volume of 200 μL. hNAAA protein preparation (4.0 μg) was preincubated for 30 min with various concentrations of test compounds or vehicle control (DMSO 5%) in 100 mM citrate/phosphate buffer (pH 4.5) containing 3.0 mM DTT, 0.1% NP40 0.1%, 0.05% BSA, 150 mM NaCl. […] Fluorescence was measured with an EnVision 2014 Multilabel Reader (PerkinElmer, Massachusetts, USA) using an excitation wavelength of 355 nm and emission of 460 nm. […]

[2] = Plasma and brain concentrations in 4L;C* mice; assay type: in vivo, mouse; details: 1 h after last dose (day 14)
Experimental: (§1) 4L;C* mice (C57BL/6 J/129SvEV) were randomly assigned to three treatment groups (N = 4–8 with mixed males and females) and dosed once a day i.p. with 90 or 30 mg kg^–1 of 22m or vehicle. Treatment started at 5 days of age for a duration of 14 days. The application volume was set to 10 μL per gram of body weight, and dosage was adjusted accordingly. Animals of all groups were sacrificed 1 h after the last dose, and the brain tissues and plasma were collected. The left brain containing cortex, cerebella, thalamus, and brainstem was analyzed for SphL levels by MS. Data were analyzed using the Student t test. The right brain containing cortex, cerebella, thalamus, and brainstem and plasma were analyzed for drug levels of 22m. All mice were housed under pathogen-free conditions in the animal facility, and animal experiment was performed according to the IACUC approved protocol (2018-0056) at Cincinnati Children’s Hospital Research Foundation. Wild Type (WT) (GALC+/+) and Twitcher (Twi) (GALC–/−) mice were genotyped by PCR as previously described.[58] Twi mice were randomly assigned to three treatment groups (N = 3 males + N = 3 females for each group) and dosed once a day i.p. with 90 or 30 mg kg^–122m or vehicle for a duration of 20 days. Treatment started at 10 days of age. The application volume was set to 10 μL per gram of body weight, and dosage was adjusted accordingly. Two groups (N = 3 males + N = 3 females for each group) of WT controls treated with vehicle or high dose (90 mg kg^–1) of 22m were also included in the study. Animals of all groups were sacrificed 1 h after the last dose, and the brain tissues and plasma were collected. The left brain containing cortex, cerebella, thalamus, and brainstem was analyzed for SphL levels by MS. Data were analyzed using the Student t test. The right brain containing cortex, cerebella, thalamus, and brainstem and plasma were analyzed for drug levels of 22m. All animal work in this study was performed in accordance with approved animal protocols from the Animal Care and Use Committee at the University of Illinois at Chicago.

[3] = In vitro mouse plasma protein binding (equilibrium dialysis); assay type: in vitro ADME; details: read-out: Fp, u (%) plasma fraction unbounded
Experimental: Studies were performed by the DMPK Group at Shanghai ChemPartner Co., Ltd., using the equilibrium dialysis method. Values are the mean of two technical replicates.

[4] = Plasma and brain concentrations in Twitcher mice; assay type: in vivo; details: both sexes, Twitcher (GALC–/−), mouse, ip, 1 h after last dose (day 20)
Experimental: as §1

What does the source list for `CC(C)CNC(=O)n1c(=O)oc2cc(C3CCN(C)CC3)ccc21` [22m, N-Isobutyl-6-(1-methyl-4-piperidyl)-2-oxo-1,3-benzoxazole-3-carboxamide]?
pIC50 [1]: 5.10; concentration at 1 h ([2]; 4L;C* mice, 90 mg kg^–1 i.p., read-out: Cb, u (μM) brain unbounded concentration): 2.61 µM; concentration at 1 h ([2]; both sexes, 4L;C* (C57BL/6 J/129SvEV), mouse, brain, ip, 30 mg kg^–1, 4L;C* mice, 30 mg kg^–1 i.p., read-out: Cb (μM) brain concentration): 110 µM; concentration at 1 h ([2]; both sexes, 4L;C* (C57BL/6 J/129SvEV), mouse, brain, ip, 30 mg kg^–1, 4L;C* mice, 30 mg kg^–1 i.p., read-out: Cb, u (μM) brain unbounded concentration): 0.77 µM; concentration at 1 h ([2]; both sexes, 4L;C* (C57BL/6 J/129SvEV), mouse, brain, ip, 90 mg kg^–1, 4L;C* mice, 90 mg kg^–1 i.p., read-out: Cb (μM) brain concentration): 373 µM; concentration at 1 h ([2]; both sexes, 4L;C* (C57BL/6 J/129SvEV), mouse, brain, ip, 90 mg kg^–1, 4L;C* mice, 90 mg kg^–1 i.p., read-out: Cb, u (μM) brain unbounded concentration): 2.6 µM; concentration at 1 h ([2]; both sexes, 4L;C* (C57BL/6 J/129SvEV), mouse, plasma, ip, 30 mg kg^–1, 4L;C* mice, 30 mg kg^–1 i.p., read-out: Cp (μM) plasma concentration): 3.08 µM; concentration at 1 h ([2]; both sexes, 4L;C* (C57BL/6 J/129SvEV), mouse, plasma, ip, 30 mg kg^–1, 4L;C* mice, 30 mg kg^–1 i.p., read-out: Cp,u (μM) plasma unbounded concentration): 0.42 µM; concentration at 1 h ([2]; both sexes, 4L;C* (C57BL/6 J/129SvEV), mouse, plasma, ip, 90 mg kg^–1, 4L;C* mice, 90 mg kg^–1 i.p., read-out: Cp (μM) plasma concentration): 16.8 µM; concentration at 1 h ([2]; both sexes, 4L;C* (C57BL/6 J/129SvEV), mouse, plasma, ip, 90 mg kg^–1, 4L;C* mice, 90 mg kg^–1 i.p., read-out: Cp,u (μM) plasma unbounded concentration): 2.32 µM; fraction unbound [3]: 0.138; concentration at 1 h ([4]; brain, 30 mg kg^–1, Twitcher mice, 30 mg kg^–1 i.p., read-out: Cb (μM) brain concentration): 114 µM; concentration at 1 h ([4]; brain, 30 mg kg^–1, Twitcher mice, 30 mg kg^–1 i.p., read-out: Cb, u (μM) brain unbounded concentration): 0.8 µM; concentration at 1 h ([4]; brain, 90 mg kg^–1, Twitcher mice, 90 mg kg^–1 i.p., read-out: Cb (μM) brain concentration): 308 µM; concentration at 1 h ([4]; brain, 90 mg kg^–1, Twitcher mice, 90 mg kg^–1 i.p., read-out: Cb, u (μM) brain unbounded concentration): 2.15 µM; concentration at 1 h ([4]; plasma, 30 mg kg^–1, Twitcher mice, 30 mg kg^–1 i.p., read-out: Cp (μM) plasma concentration): 0.85 µM; concentration at 1 h ([4]; plasma, 30 mg kg^–1, Twitcher mice, 30 mg kg^–1 i.p., read-out: Cp,u (μM) plasma unbounded concentration): 0.11 µM; concentration at 1 h ([4]; plasma, 90 mg kg^–1, Twitcher mice, 90 mg kg^–1 i.p., read-out: Cp (μM) plasma concentration): 3.85 µM; concentration at 1 h ([4]; plasma, 90 mg kg^–1, Twitcher mice, 90 mg kg^–1 i.p., read-out: Cp,u (μM) plasma unbounded concentration): 0.52 µM
